Data as given in patent US20080021015A1, “Use as medicine of a compound restoring active principles in vivo” (DOSPHARMA, priority 2000, published 2008).
Where a name gives a salt, the structure may show the parent alone.

Columns and labels:
[1] = rat, in vivo, po, 50 mg/kg
[2] = system: rats treated with streptozotocin; experiment: Antidiabetic activity in rats made diabetic with streptozotocin; assay type: in vivo, rat; conditions: streptozotocin (50 mg/kg, IP) rats; for hyperglycaemia after treatment: after administration of 30 mg/kg; for hyperglycaemia before treatment: starting value, 30 mg/kg group
Description: (§1) The antidiabetic activity was studied, from the pharmacological point of view, on two models of rats made diabetic.
The first model consisted in treating the rats with streptozotocin (50 mg/kg, IP), this being a compound which induces an increase in glycaemia, which increases from 5.5 mM to 12-14 mM in 21 days.

primary hepatocytes = experiment: In vitro toxicity assay on primary hepatocytes
Description: A method for culturing primary hepatocytes over a period of 96 hours is used (see Biochemical Pharmacology, vol. 50, 1995, pp. 775-780). The hepatocytes are isolated in situ by collagen profusion. They are then placed in a Williams medium supplemented with foetal calf serum, with cortisol and with glutamine, in a proportion of 1 million cells per well. Increasing and toxic concentrations of A and C, and of A′ ? […] C′ are then added to each well. Samples are taken up after 6 h, 12 h, 24 h, 48 h and 96 h and the viability of the cells is determined with a methylene blue test, by albumin expression, by hepatocyte apoptosis and by measuring cytochrome P450 activity.

[3] = system: rats given fructose at 10% in the drinking water; conditions: fructose 10% in drinking water, equivalent dose of metformin base
Description: as §1
The second study is carried out with the administration of fructose at 10% in the drinking water of the rats.

| concentration peak [1] | time of concentration peak [1] | Compound | hyperglycaemia after treatment [2] | hyperglycaemia before treatment [2] | toxic dose (primary hepatocytes) | effects on the microcirculation (hamster cheek pouch) | antidiabetic activity compared with metformin alone [3] |
| --- | --- | --- | --- | --- | --- | --- | --- |
| 3900 ng/mL | ≤ 90 min | CN(C)C(=N)N=C(N)N [metformin hydrochloride] |  |  |  |  |  |
|  |  | CN(C)C(=N)NC(=N)N [metformin, N,N-dimethylimidodicarbonimidic diamide] | 9.85 mM | 12.11 mM | 10^−2 M |  |  |
|  |  | arginine hemisuccinimide-metformin hemisuccinate | 7.56 mM | 12.66 mM |  | reproduces at least the effects of the two active principles on the microcirculation | significantly more active than the metformin alone |
